Test system: C57BL/6J ob/ob mice
Assay: Anti-diabetic activity (plasma glucose lowering) in C57BL/6J ob/ob mice, oral gavage
Type: in vivo, mouse
Details: male C57BL/6J ob/ob mice, oral gavage once a day for 1-4 days; for minimal effective dose: Mus musculus, dose effective for plasma glucose lowering, blood taken 6 hours after each dose, read-out: Potency
Protocol: The anti-diabetic activities of the compounds were evaluated in the C57BL/6j ob/ob Mice model.
Male, 7-9 weeks old, C57BL/6J ob/ob mice were purchased from The Jackson Laboratory (Bar Harbor, Me., USA). Animals were housed (4-5 mice/cage) under standard laboratory conditions at 22±3° C. temperature and 50±20% relative humidity, and were maintained on a diet of Purina rodent chow and water ad libitum. Prior to treatment, blood was collected from the tail vein of each animal. Mice that had non-fasting plasma glucose levels between 250 and 500 mg/dl were used. Each treatment group consisted of 8-10 mice that were distributed so that the mean glucose levels were equivalent in each group at the start of the study. Mice were dosed orally by gavage once a day for 1-4 days with vehicle and one or more dose of test compound at a dose ranging from 5 to 125 mg/kg. Compounds were delivered in a liquid formulation containing 5% (v/v) dimethyl sulfoxide (DMSO), 1% (v/v) Tween 80® and 0.9% (w/v) methylcellulose. The gavage volume was 10 ml/kg. Blood samples were taken at 6 hours after the each dose and analyzed for plasma glucose. Food intake and body weight were measured daily. Plasma glucose concentrations were determined colorimetrically using a commercial glucose oxidase method (Sigma Chemical Co, St. Louis, Mo., USA). Significant difference between groups (comparing drug-treated to vehicle-treated) was evaluated using the Student unpaired t-test.
FIG. 6 illustrates the anti-diabetic effects of selected compounds of the present invention. Table 15 provides the relative potency of some of these selected compounds. Compounds that are effective for glucose lowering at the dose of ≧125 mg/kg are assigned a potency of +; compounds that are effective for glucose lowering at a dose of >25 mg/kg but <125 mg/kg are assigned a potency of ++; compounds that are effective for glucose lowering at a dose of ≦25 mg/kg are assigned a potency of +++. For example, a compound at 25 mg/kg that lowered the animal glucose level from 400 mg/dL (vehicle group value) to 250 mg/dL, is assigned the potency of +++.

Row | SMILES | minimal effective dose | Insulin Level compared with vehicle
1 | O=C(O)C(Oc1ccc(C(F)(F)F)cc1-c1nc2ccccc2o1)c1cccc(C(F)(F)F)c1 (centres unmarked) [Example I-89] | ≤ 25 mg/kg | Lower
2 | CC(Oc1ccc(C(F)(F)F)cc1-c1nc2ccccc2o1)(C(=O)O)c1ccccc1 (centres unmarked) [Ia-365] | ≤ 25 mg/kg | Lower
3 | O=C(O)C(Oc1ccccc1-c1nc2ccccc2o1)c1cccc(C(F)(F)F)c1 (centres unmarked) [Example I-3] | ≥ 125 mg/kg | Lower
4 | CC(Oc1ccc(C(F)(F)F)cc1-n1nc2ccccc2n1)(C(=O)O)c1ccc(C(F)(F)F)cc1 (centres unmarked) [XIa-51] | ≤ 25 mg/kg | Lower
5 | O=C(O)C(Oc1ccc(Cl)cc1-c1nc2ccccc2o1)c1cccc(Cl)c1 (centres unmarked) [Example I-194] | ≤ 25 mg/kg | Lower
6 | O=C(O)[C@@H](Oc1ccc(C(F)(F)F)cc1-c1nc2ccccc2o1)c1ccccc1 [Example I-369] | ≤ 25 mg/kg | Lower
7 | Cc1ccc(OC(C(=O)O)c2ccc(C(F)(F)F)cc2)c(-n2nc3ccccc3n2)c1 (centres unmarked) [XI-6] | ≤ 25 mg/kg | Lower
8 | O=C(O)C(Oc1ccc(Cl)cc1-c1nc2ccccc2o1)c1cccc(C(F)(F)F)c1 (centres unmarked) [Example I-191] | ≤ 25 mg/kg | Lower
9 | Cc1ccc(OC(C(=O)O)c2cccc(C(F)(F)F)c2)c(-n2nc3ccccc3n2)c1 (centres unmarked) [XI-2] | ≤ 25 mg/kg | Lower
10 | O=C(O)C(Oc1ccc(Cl)cc1-n1nc2ccccc2n1)c1ccc(C(F)(F)F)cc1 (centres unmarked) [XI-24] | ≤ 25 mg/kg | Lower
11 | O=C(O)C(Oc1ccccc1-c1nc2ccccc2o1)c1ccc(Cl)cc1 (centres unmarked) [Example I-1] | 25 to 125 mg/kg | Lower
12 | Cc1ccc(OC(C)(C(=O)O)c2ccc(Cl)cc2)c(-n2nc3ccccc3n2)c1 (centres unmarked) [XIa-5] | ≤ 25 mg/kg | Lower
13 | O=C(O)C(Oc1ccc(C(F)(F)F)cc1-n1nc2ccccc2n1)c1ccc(C(F)(F)F)cc1 (centres unmarked) [XI-51] | ≤ 25 mg/kg | Lower
14 | O=C(O)C(Oc1ccc(Cl)cc1-c1nc2ccccc2o1)c1ccc(Cl)cc1 (centres unmarked) [Example I-190] | ≤ 25 mg/kg | Lower
15 | O=C(O)C(Oc1ccc(C(F)(F)F)cc1-n1nc2ccccc2n1)c1cccc(C(F)(F)F)c1 (centres unmarked) [XI-47] | ≤ 25 mg/kg | Lower
16 | COc1ccc(C(Oc2ccc(Cl)cc2-c2nc3ccccc3o2)C(=O)O)cc1 (centres unmarked) [Example I-193] | ≤ 25 mg/kg | Lower
17 | O=C(O)C(Oc1ccc(C(F)(F)F)cc1-c1nc2ccccc2o1)c1ccccc1 (centres unmarked) [Example I-92] | ≤ 25 mg/kg | Lower
18 | CC(Oc1ccc(C(F)(F)F)cc1-c1nc2ccccc2o1)(C(=O)O)c1ccccc1 (centres unmarked) [Ia-366] |  | Lower
